Where two headings read alike, the source gives them in different places. *1 amine or outer side, *2 acyl side, *3 side chain or, on linkers, in order; H or OH if unused. Where a SMILES comes first, the peptide text is derived from it. [ ]: non-standard residue; d: D form. The star is where a group is joined. ξ: configuration not given here. MeBmt = C/C=C/C[C@@H](C)[C@@H](O)[C@H](NC)C(=O)O; X14 = CCOCOC(C)(C)C[C@@H](C(=O)[*:2])N(C)[*:1]; X15 = CSCOC(C)(C)C[C@@H](C(=O)[*:2])N(C)[*:1]; X6 = CCN(CC)CCS[C@H](C(=O)[*:2])N(C)[*:1]; X3 = CC=CCC(C)C(O)C(C(=O)[*:2])N(C)[*:1]; X7 = CN(C(SCCCN1CCOCC1)C(=O)[*:2])[*:1]; NMeIle(3ξ) = CCC(C)[C@H](NC)C(=O)O; NMeI = CC[CH](C)[CH](NC)C(=O)O; NMeL = CN[CH](CC(C)C)C(=O)O; NMeV = CN[CH](C(=O)O)C(C)C; dNMeC = CN[C@H](CS)C(=O)O; Et2NCH2CH2 = CCN(CC)CC*; NMeC = CN[CH](CS)C(=O)O; NMeS = CN[CH](CO)C(=O)O; Abu = CC[CH](N)C(=O)O
Tested on: HCV replicon in cell line ET (luc-ubi-neo/ET), Huh7 human hepatoma
Assay: HCV subgenomic replicon assay, luciferase end point
Format: cell-based
Conditions: read-out: Antiviral activity EC50
[1] = HCV subgenomic replicon, cell line ET (luc-ubi-neo/ET) Huh7, luciferase end point
[2] = Table 14, HCV replicon luciferase
[3] = Hepatitis C virus, Huh-7, Table 14, HCV replicon luciferase
[4] = Table 12, HCV replicon luciferase

C/C=C/C[C@@H](C)[C@@H](O)[C@H]1C(=O)N[C@@H](CC)C(=O)N(C)[C@H](CSCCCN(CC)CC)C(=O)N(C)[C@@H](CC(C)(C)OC)C(=O)N[C@@H](C(C)C)C(=O)N(C)[C@@H](CC(C)C)C(=O)N[C@@H](C)C(=O)N[C@H](C)C(=O)N(C)[C@@H](CC(C)C)C(=O)N(C)[C@@H](CC(C)C)C(=O)N(C)[C@@H](C(C)C)C(=O)N1C
EC50 [1]: 70 nM

CC=CCC(C)C(O)C1C(=O)NC(CC)C(=O)N(C)C(CSCCN(CC)C(C)C)C(=O)N(C)C(CC(C)(C)O)C(=O)NC(C(C)C)C(=O)N(C)C(CC(C)C)C(=O)NC(C)C(=O)NC(C)C(=O)N(C)C(CC(C)C)C(=O)N(C)C(CC(C)C)C(=O)N(C)C(C(C)C)C(=O)N1C (centres unmarked)
EC50 [1]: 70 nM

C/C=C/C[C@@H](C)[C@@H](O)[C@H]1C(=O)N[C@@H](CC)C(=O)N(C)[C@H](COCCN(C)C)C(=O)N(C)[C@@H](CC(C)C)C(=O)N[C@@H](C(C)C)C(=O)N(C)[C@@H](CC(C)C)C(=O)N[C@@H](C)C(=O)N[C@H](C)C(=O)N(C)[C@@H](CC(C)C)C(=O)N(C)[C@@H](CC(C)C)C(=O)N(C)[C@@H](C(C)C)C(=O)N1C [[(R)-(2-(N,N-Dimethylamino)ethoxy)methyl-Sar]-3-cyclosporin]
EC50 (Hepatitis C virus, Huh-7, HCV subgenomic replicon, cell line ET (luc-ubi-neo/ET) Huh7, luciferase end point): 150 nM

CC=CCC(C)C(O)C1C(=O)NC(CC)C(=O)N(C)C(SCCCN2CCOCC2)C(=O)N(C)C(CC(C)(C)OC)C(=O)NC(C(C)C)C(=O)N(C)C(CC(C)C)C(=O)NC(C)C(=O)NC(C)C(=O)N(C)C(CC(C)C)C(=O)N(C)C(CC(C)C)C(=O)N(C)C(C(C)C)C(=O)N1C [[(S)-3-(N-Morpholino)propylthio-Sar]-3-[(γ-methoxy)-N-MeLeu]-4-cyclosporin]
EC50 (Table 13, HCV replicon luciferase): 60 nM

C/C=C/C[C@@H](C)[C@@H](O)[C@H]1C(=O)N[C@@H](CC)C(=O)N(C)[C@H](COCCCN2CCCC2)C(=O)N(C)[C@@H](CC(C)(C)O)C(=O)N[C@@H](C(C)C)C(=O)N(C)[C@@H](CC(C)C)C(=O)N[C@@H](C)C(=O)N[C@H](C)C(=O)N(C)[C@@H](CC(C)C)C(=O)N(C)[C@@H](CC(C)C)C(=O)N(C)[C@@H](C(C)C)C(=O)N1C
EC50 [1]: 220 nM
EC50 [2]: 120 nM

C/C=C/C[C@@H](C)[C@@H](O)[C@H]1C(=O)N[C@@H](CC)C(=O)N(C)[C@H](CSCCN(C)C)C(=O)N(C)[C@@H](CC(C)(C)O)C(=O)N[C@@H](C(C)C)C(=O)N(C)[C@@H](CC(C)C)C(=O)N[C@@H](C)C(=O)N[C@H](C)C(=O)N(C)[C@@H](CC(C)C)C(=O)N(C)[C@@H](CC(C)C)C(=O)N(C)[C@@H](C(C)C)C(=O)N1C (single isomer, unassigned; isomer b)
EC50 [2]: 50 nM

C/C=C/C[C@@H](C)[C@@H](O)[C@H]1C(=O)N[C@@H](CC)C(=O)N(C)[C@H](COCCN(CC)CC)C(=O)N(C)[C@@H](CC(C)(C)OC)C(=O)N[C@@H](C(C)C)C(=O)N(C)[C@@H](CC(C)C)C(=O)N[C@@H](C)C(=O)N[C@H](C)C(=O)N(C)[C@@H](CC(C)C)C(=O)N(C)[C@@H](CC(C)C)C(=O)N(C)[C@@H](C(C)C)C(=O)N1C
EC50 [1]: 60 nM

C/C=C/C[C@@H](C)[C@@H](O)[C@H]1C(=O)N[C@@H](CC)C(=O)N(C)[C@H](CSCCN(C)C(C)C)C(=O)N(C)[C@@H](CC(C)(C)O)C(=O)N[C@@H](C(C)C)C(=O)N(C)[C@@H](CC(C)C)C(=O)N[C@@H](C)C(=O)N[C@H](C)C(=O)N(C)[C@@H](CC(C)C)C(=O)N(C)[C@@H](CC(C)C)C(=O)N(C)[C@@H](C(C)C)C(=O)N1C
EC50 [3]: 40 nM

C/C=C/C[C@@H](C)[C@@H](O)[C@H]1C(=O)N[C@@H](CC)C(=O)N(C)[C@H](CSCCN2CCN(CC)CC2)C(=O)N(C)[C@@H](CC(C)(C)O)C(=O)N[C@@H](C(C)C)C(=O)N(C)[C@@H](CC(C)C)C(=O)N[C@@H](C)C(=O)N[C@H](C)C(=O)N(C)[C@@H](CC(C)C)C(=O)N(C)[C@@H](CC(C)C)C(=O)N(C)[C@@H](C(C)C)C(=O)N1C
EC50 (Table 16, HCV replicon luciferase): 60 nM

CC=CCC(C)C(O)C1C(=O)NC(CC)C(=O)N(C)C(CSCCCN2CCCC2)C(=O)N(C)C(CC(C)(C)OC)C(=O)NC(C(C)C)C(=O)N(C)C(CC(C)C)C(=O)NC(C)C(=O)NC(C)C(=O)N(C)C(CC(C)C)C(=O)N(C)C(CC(C)C)C(=O)N(C)C(C(C)C)C(=O)N1C (centres unmarked)
EC50 [1]: 100 nM

CC=CCC(C)C(O)C1C(=O)NC(CC)C(=O)N(C)C(SCCN(C)C)C(=O)N(C)C(C(C)C)C(=O)NC(C(C)C)C(=O)N(C)C(CC(C)C)C(=O)NC(C)C(=O)NC(C)C(=O)N(C)C(CC(C)C)C(=O)N(C)C(CC(C)C)C(=O)N(C)C(C(C)C)C(=O)N1C [(S)-2-(N,N-Dimethylamino)ethylthio-Sar]-3-[N-MeVal]-4-cyclosporin]
EC50 [4]: 130 nM

CC=CCC(C)C(O)C1C(=O)NC(CC)C(=O)N(C)C(CSCCN(CC)CC)C(=O)N(C)C(C(C)CC)C(=O)NC(C(C)C)C(=O)N(C)C(CC(C)C)C(=O)NC(C)C(=O)NC(C)C(=O)N(C)C(CC(C)C)C(=O)N(C)C(CC(C)C)C(=O)N(C)C(C(C)C)C(=O)N1C [[(S)-(2-(N,N-Diethylamino)ethylthio)methyl-Sar]-3-[N-MeIle]-4-cyclosporin] (cyclo([X3][Abu][NMeC](Et2NCH2CH2)[NMeI]V[NMeL]AA[NMeL][NMeL][NMeV]); configuration not given here)
EC50 [1]: 100 nM

C/C=C/C[C@@H](C)[C@@H](O)[C@H]1C(=O)N[C@@H](CC)C(=O)N(C)[C@H](CSCCN(CC)CC)C(=O)N(C)[C@@H](CC(C)(C)OCSC)C(=O)N[C@@H](C(C)C)C(=O)N(C)[C@@H](CC(C)C)C(=O)N[C@@H](C)C(=O)N[C@H](C)C(=O)N(C)[C@@H](CC(C)C)C(=O)N(C)[C@@H](CC(C)C)C(=O)N(C)[C@@H](C(C)C)C(=O)N1C (cyclo(A[dA][NMeL][NMeL][NMeV][MeBmt][Abu][dNMeC](Et2NCH2CH2)[X15]V[NMeL]))
EC50 [3]: 20 nM

C/C=C/C[C@@H](C)[C@@H](O)[C@H]1C(=O)N[C@@H](CC)C(=O)N(C)[C@H](SCCN(CC)CC)C(=O)N(C)[C@@H](C(C)CC)C(=O)N[C@@H](C(C)C)C(=O)N(C)[C@@H](CC(C)C)C(=O)N[C@@H](C)C(=O)N[C@H](C)C(=O)N(C)[C@@H](CC(C)C)C(=O)N(C)[C@@H](CC(C)C)C(=O)N(C)[C@@H](C(C)C)C(=O)N1C (stereo partly drawn) [(R)-2-(N,N-Diethylamino)ethylthio-Sar]-3-[N-MeIle]-4-cyclosporin] (cyclo(A[dA][NMeL][NMeL][NMeV][MeBmt][Abu][X6][NMeIle(3ξ)]V[NMeL]))
EC50 [4]: 1870 nM

C/C=C/C[C@@H](C)[C@@H](O)[C@H]1C(=O)N[C@@H](CC)C(=O)N(C)[C@H](CSCCN(CC)CC)C(=O)N(C)[C@@H](CC(C)(C)OCOCC)C(=O)N[C@@H](C(C)C)C(=O)N(C)[C@@H](CC(C)C)C(=O)N[C@@H](C)C(=O)N[C@H](C)C(=O)N(C)[C@@H](CC(C)C)C(=O)N(C)[C@@H](CC(C)C)C(=O)N(C)[C@@H](C(C)C)C(=O)N1C (cyclo(A[dA][NMeL][NMeL][NMeV][MeBmt][Abu][dNMeC](Et2NCH2CH2)[X14]V[NMeL]))
EC50 [3]: 20 nM

CC=CCC(C)C(O)C1C(=O)NC(CC)C(=O)N(C)C(CSCCN(C)C)C(=O)N(C)C(CC(C)(C)OC)C(=O)NC(C(C)C)C(=O)N(C)C(CC(C)C)C(=O)NC(C)C(=O)NC(C)C(=O)N(C)C(CC(C)C)C(=O)N(C)C(CC(C)C)C(=O)N(C)C(C(C)C)C(=O)N1C (centres unmarked)
EC50 [1]: 100 nM

C/C=C/C[C@@H](C)[C@@H](O)[C@H]1C(=O)N[C@@H](CC)C(=O)N(C)[C@H](CSCCN2CCN(C)CC2)C(=O)N(C)[C@@H](CC(C)(C)O)C(=O)N[C@@H](C(C)C)C(=O)N(C)[C@@H](CC(C)C)C(=O)N[C@@H](C)C(=O)N[C@H](C)C(=O)N(C)[C@@H](CC(C)C)C(=O)N(C)[C@@H](CC(C)C)C(=O)N(C)[C@@H](C(C)C)C(=O)N1C
EC50 [3]: 30 nM

CC=CCC(C)C(O)C1C(=O)NC(CC)C(=O)N(C)C(SCCCN2CCOCC2)C(=O)N(C)C(C(C)C)C(=O)NC(C(C)C)C(=O)N(C)C(CC(C)C)C(=O)NC(C)C(=O)NC(C)C(=O)N(C)C(CC(C)C)C(=O)N(C)C(CC(C)C)C(=O)N(C)C(C(C)C)C(=O)N1C [[(S)-(3-(N-Morpholino)propylthio-Sar]-3-[N-MeVal]-4-cyclosporin] (cyclo([X3][Abu][X7][NMeV]V[NMeL]AA[NMeL][NMeL][NMeV]); configuration not given here)
EC50 [1]: 110 nM

C/C=C/C[C@@H](C)[C@@H](O)[C@H]1C(=O)N[C@@H](CC)C(=O)N(C)[C@H](CSCCCN2CCOCC2)C(=O)N(C)[C@@H](CC(C)(C)O)C(=O)N[C@@H](C(C)C)C(=O)N(C)[C@@H](CC(C)C)C(=O)N[C@@H](C)C(=O)N[C@H](C)C(=O)N(C)[C@@H](CC(C)C)C(=O)N(C)[C@@H](CC(C)C)C(=O)N(C)[C@@H](C(C)C)C(=O)N1C
EC50 [3]: 20 nM

CC=CCC(C)C(O)C1C(=O)NC(CC)C(=O)N(C)C(CSCCCN2CCCCC2)C(=O)N(C)C(CC(C)(C)O)C(=O)NC(C(C)C)C(=O)N(C)C(CC(C)C)C(=O)NC(C)C(=O)NC(C)C(=O)N(C)C(CC(C)C)C(=O)N(C)C(CC(C)C)C(=O)N(C)C(C(C)C)C(=O)N1C (centres unmarked)
EC50 [1]: 50 nM

CC=CCC(C)C(O)C1C(=O)NC(CC)C(=O)N(C)C(COCCN(CC)CC)C(=O)N(C)C(C(C)CC)C(=O)NC(C(C)C)C(=O)N(C)C(CC(C)C)C(=O)NC(C)C(=O)NC(C)C(=O)N(C)C(CC(C)C)C(=O)N(C)C(CC(C)C)C(=O)N(C)C(C(C)C)C(=O)N1C [[(R)-(2-(N,N-Diethylamino)ethoxy)methyl-Sar]-3-[N-MeIle]-4-cyclosporin] (cyclo([X3][Abu][NMeS](Et2NCH2CH2)[NMeI]V[NMeL]AA[NMeL][NMeL][NMeV]); configuration not given here)
EC50 [1]: 160 nM

C/C=C/C[C@@H](C)[C@@H](O)[C@H]1C(=O)N[C@@H](CC)C(=O)N(C)[C@H](COCCCN2CCCCC2)C(=O)N(C)[C@@H](CC(C)(C)O)C(=O)N[C@@H](C(C)C)C(=O)N(C)[C@@H](CC(C)C)C(=O)N[C@@H](C)C(=O)N[C@H](C)C(=O)N(C)[C@@H](CC(C)C)C(=O)N(C)[C@@H](CC(C)C)C(=O)N(C)[C@@H](C(C)C)C(=O)N1C [[(R)-(3-(N-Piperidinyl)propoxy)methyl-Sar]-3-[(γ-hydroxy)-N-MeLeu]-4-cyclosporin]
EC50 [1]: 150 nM
